Measurements published in patent US12577206B2 (BRISTOL-MYERS SQUIBB COMPANY, priority 2020, dated 2026).

Assays:
human FPR2 = biological target: T1, human FPR2 (Homo sapiens, UniProt P25090); assay: FPR2 cyclic adenosine monophosphate (cAMP) assay; assay type: cell-based; details: CHO cells overexpressing human FPR2; forskolin 5 μM; inhibition of cAMP production; HTRF; read-out: hFPR2 cAMP2 EC50
T1 sequence (P25090 1-351): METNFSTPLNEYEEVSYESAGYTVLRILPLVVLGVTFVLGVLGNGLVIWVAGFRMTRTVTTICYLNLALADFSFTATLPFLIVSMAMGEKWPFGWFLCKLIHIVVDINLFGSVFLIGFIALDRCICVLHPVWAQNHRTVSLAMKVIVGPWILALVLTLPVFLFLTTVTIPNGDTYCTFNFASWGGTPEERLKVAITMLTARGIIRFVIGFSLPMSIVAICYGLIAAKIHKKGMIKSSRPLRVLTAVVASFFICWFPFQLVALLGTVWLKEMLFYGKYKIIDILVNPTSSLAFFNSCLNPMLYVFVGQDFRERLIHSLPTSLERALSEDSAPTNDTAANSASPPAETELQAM
In short: (§1)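 Inhibition of forskolin-stimulated cAMP (final forskolin 5 μM for FPR2, 10 μM for FPR1; IBMX 200 μM) was measured by HTRF in recombinant CHO cells after 30 min at room temperature.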

human FPR1 = biological target: T2, human FPR1 (Homo sapiens, UniProt P21462); assay: FPR1 cyclic adenosine monophosphate (cAMP) assay; assay type: cell-based; details: CHO cells overexpressing human FPR1; forskolin 10 μM; inhibition of cAMP production; HTRF; read-out: hFPR1 cAMP2 EC50
T2 sequence (P21462 1-350): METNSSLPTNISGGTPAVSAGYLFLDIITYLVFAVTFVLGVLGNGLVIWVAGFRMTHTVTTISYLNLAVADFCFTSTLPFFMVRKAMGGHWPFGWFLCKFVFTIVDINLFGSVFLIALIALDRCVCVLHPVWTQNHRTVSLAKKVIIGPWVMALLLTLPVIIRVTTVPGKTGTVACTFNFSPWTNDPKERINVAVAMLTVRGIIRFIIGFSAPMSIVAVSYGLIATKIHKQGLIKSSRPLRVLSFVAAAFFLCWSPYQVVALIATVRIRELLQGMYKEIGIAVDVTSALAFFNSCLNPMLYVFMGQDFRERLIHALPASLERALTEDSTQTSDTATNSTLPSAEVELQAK
In short: as §1

SMILES | EC50 (human FPR2) | EC50 (human FPR1)
COc1cc(F)c(-c2c(NC(=O)c3ccc(OC(F)F)cc3)c(=O)n(-c3nc(NC4COC4)ccc3C(F)(F)F)n2C)c(F)c1 [Example 253, N-[5-(2,6-difluoro-4-methoxyphenyl)-1-methyl-2-{6-[(oxetan-3-yl)amino]-3-(trifluoromethyl)pyridin-2-yl}-3-oxo-2,3-dihydro-1H-pyrazol-4-yl]-4-(difluoromethoxy)benzamide] | 5 nM | > 10000 nM
COc1cc(F)c(-c2c(NC(=O)c3ccc(OC(F)F)cc3)c(=O)n(-c3nc(OC)ccc3C(F)(F)F)n2C)c(F)c1 [Example 257, N-[5-(2,6-difluoro-4-methoxyphenyl)-2-[6-methoxy-3-(trifluoromethyl)pyridin-2-yl]-1-methyl-3-oxo-2,3-dihydro-1H-pyrazol-4-yl]-4-(difluoromethoxy)benzamide] | 10 nM | > 10000 nM
COc1cc(F)c(-c2c(NC(=O)c3ccc(OC(F)F)cc3)c(=O)n(-c3nc(N4CCC[C@H]4CO)ccc3C(F)(F)F)n2C)c(F)c1 [Example 258, N-[5-(2,6-difluoro-4-methoxyphenyl)-2-{6-[(2S)-2-(hydroxymethyl)pyrrolidin-1-yl]-3-(trifluoromethyl)pyridin-2-yl}-1-methyl-3-oxo-2,3-dihydro-1H-pyrazol-4-yl]-4-(difluoromethoxy)benzamide] | 9 nM | > 5000 nM
COC(=O)[C@@H]1CCCN1c1ccc(C(F)(F)F)c(-n2c(=O)c(NC(=O)c3ccc(OC(F)F)cc3)c(-c3c(F)cc(OC)cc3F)n2C)n1 [Example 259, methyl (2S)-1-{6-[3-(2,6-difluoro-4-methoxyphenyl)-4-[4-(difluoromethoxy)benzamido]-2-methyl-5-oxo-2,5-dihydro-1H-pyrazol-1-yl]-5-(trifluoromethyl)pyridin-2-yl}pyrrolidine-2-carboxylate] | 10 nM | > 10000 nM
CNC(=O)CN(C)c1ccc(C(F)(F)F)c(-n2c(=O)c(NC(=O)c3ccc(OC(F)F)cc3)c(-c3c(F)cc(OC)cc3F)n2C)n1 [Example 260, N-[5-(2,6-difluoro-4-methoxyphenyl)-1-methyl-2-(6-{methyl[(methylcarbamoyl)methyl]amino}-3-(trifluoromethyl)pyridin-2-yl)-3-oxo-2,3-dihydro-1H-pyrazol-4-yl]-4-(difluoromethoxy)benzamide] | 10 nM | > 10000 nM
COc1ccc(-c2c(NC(=O)c3ccc(OC(F)F)cc3)c(=O)n(-c3ncccc3Cl)n2C)c(F)c1 [Example 262, N-[2-(3-chloropyridin-2-yl)-5-(2-fluoro-4-methoxyphenyl)-1-methyl-3-oxo-2,3-dihydro-1H-pyrazol-4-yl]-4-(difluoromethoxy)benzamide] | 25 nM | 2000 nM
COc1ccc(-c2c(NC(=O)c3ccc(OC(F)F)cc3)c(=O)n(-c3ncccc3C(F)(F)F)n2C)c(F)c1 [Example 263, 4-(difluoromethoxy)-N-[5-(2-fluoro-4-methoxyphenyl)-1-methyl-3-oxo-2-[3-(trifluoromethyl)pyridin-2-yl]-2,3-dihydro-1H-pyrazol-4-yl]benzamide] | 8 nM | 1700 nM
COc1cc(F)c(-c2c(NC(=O)c3ccc(OC(F)F)cc3)c(=O)n(-c3nc(NC4(C)CC4)ccc3C(F)(F)F)n2C)c(F)c1 [Example 266, N-[5-(2,6-difluoro-4-methoxyphenyl)-1-methyl-2-{6-[(1-methylcyclopropyl)amino]-3-(trifluoromethyl)pyridin-2-yl}-3-oxo-2,3-dihydro-1H-pyrazol-4-yl]-4-(difluoromethoxy)benzamide] | 4 nM | > 10000 nM
COc1cc(F)c(-c2c(NC(=O)c3ccc(OC(F)F)cc3)c(=O)n(-c3nc(N4CCN(CC(F)F)CC4)ccc3C(F)(F)F)n2C)c(F)c1 [Example 270, N-[5-(2,6-difluoro-4-methoxyphenyl)-2-{6-[4-(2,2-difluoroethyl)piperazin-1-yl]-3-(trifluoromethyl)pyridin-2-yl}-1-methyl-3-oxo-2,3-dihydro-1H-pyrazol-4-yl]-4-(difluoromethoxy)benzamide] | 6 nM | 3400 nM

Other lines, results leading:

EC50 (human FPR2) | EC50 (human FPR1) | SMILES
4 nM | > 10000 nM | COc1cc(F)c(-c2c(NC(=O)c3ccc(OC(F)F)cc3)c(=O)n(-c3nc(N[C@@H]4CCOC4)ccc3C(F)(F)F)n2C)c(F)c1 [Example 254, N-[5-(2,6-difluoro-4-methoxyphenyl)-1-methyl-3-oxo-2-(6-{[(3R)-oxolan-3-yl]amino}-3-(trifluoromethyl)pyridin-2-yl)-2,3-dihydro-1H-pyrazol-4-yl]-4-(difluoromethoxy)benzamide]
2 nM | > 10000 nM | COc1cc(F)c(-c2c(NC(=O)c3ccc(OC(F)F)cc3)c(=O)n(-c3nc(N[C@H]4CCOC4)ccc3C(F)(F)F)n2C)c(F)c1 [Example 255]
3 nM | > 10000 nM | COc1cc(F)c(-c2c(NC(=O)c3ccc(OC(F)F)cc3)c(=O)n(-c3nc(NC(C)(C)CO)ccc3C(F)(F)F)n2C)c(F)c1 [Example 256, N-[5-(2,6-difluoro-4-methoxyphenyl)-2-{6-[(1-hydroxy-2-methylpropan-2-yl)amino]-3-(trifluoromethyl)pyridin-2-yl}-1-methyl-3-oxo-2,3-dihydro-1H-pyrazol-4-yl]-4-(difluoromethoxy)benzamide]
2 nM | > 5000 nM | COc1cc(F)c(-c2c(NC(=O)c3ccc(OC(F)F)cc3)c(=O)n(-c3nc(N(C)CC(C)(C)O)ccc3C(F)(F)F)n2C)c(F)c1 [Example 261, N-[5-(2,6-difluoro-4-methoxyphenyl)-2-{6-[(2-hydroxy-2-methylpropyl)(methyl)amino]-3-(trifluoromethyl)pyridin-2-yl}-1-methyl-3-oxo-2,3-dihydro-1H-pyrazol-4-yl]-4-(difluoromethoxy)benzamide]
2 nM | > 5000 nM | COc1cc(F)c(-c2c(NC(=O)c3ccc(OC(F)F)cc3)c(=O)n(-c3nc(NCC4CC4)ccc3C(F)(F)F)n2C)c(F)c1 [Example 264, N-(2-{6-[(cyclopropylmethyl)amino]-3-(trifluoromethyl)pyridin-2-yl}-5-(2,6-difluoro-4-methoxyphenyl)-1-methyl-3-oxo-2,3-dihydro-1H-pyrazol-4-yl)-4-(difluoromethoxy)benzamide]
2 nM | > 10000 nM | COc1cc(F)c(-c2c(NC(=O)c3ccc(OC(F)F)cc3)c(=O)n(-c3nc(NC(C)(C)C)ccc3C(F)(F)F)n2C)c(F)c1 [Example 265, N-{2-[6-(tert-butylamino)-3-(trifluoromethyl)pyridin-2-yl]-5-(2,6-difluoro-4-methoxyphenyl)-1-methyl-3-oxo-2,3-dihydro-1H-pyrazol-4-yl}-4-(difluoromethoxy)benzamide]
2 nM | 7100 nM | COc1cc(F)c(-c2c(NC(=O)c3ccc(OC(F)F)cc3)c(=O)n(-c3nc(N(C4CC4)C4CC4)ccc3C(F)(F)F)n2C)c(F)c1 [Example 267, N-{2-[6-(dicyclopropylamino)-3-(trifluoromethyl)pyridin-2-yl]-5-(2,6-difluoro-4-methoxyphenyl)-1-methyl-3-oxo-2,3-dihydro-1H-pyrazol-4-yl}-4-(difluoromethoxy)benzamide]
2 nM | 1500 nM | COc1cc(F)c(-c2c(NC(=O)c3ccc(OC(F)F)cc3)c(=O)n(-c3nc(N4CCN(S(C)(=O)=O)CC4)ccc3C(F)(F)F)n2C)c(F)c1 [Example 268, N-[5-(2,6-difluoro-4-methoxyphenyl)-2-[6-(4-methanesulfonylpiperazin-1-yl)-3-(trifluoromethyl)pyridin-2-yl]-1-methyl-3-oxo-2,3-dihydro-1H-pyrazol-4-yl]-4-(difluoromethoxy)benzamide]
3 nM | 3300 nM | COc1cc(F)c(-c2c(NC(=O)c3ccc(OC(F)F)cc3)c(=O)n(-c3nc(N4CCN(CC(F)(F)F)CC4)ccc3C(F)(F)F)n2C)c(F)c1 [Example 269, N-[5-(2,6-difluoro-4-methoxyphenyl)-1-methyl-3-oxo-2-{6-[4-(2,2,2-trifluoroethyl)piperazin-1-yl]-3-(trifluoromethyl)pyridin-2-yl}-2,3-dihydro-1H-pyrazol-4-yl]-4-(difluoromethoxy)benzamide]
3 nM | > 10000 nM | COc1cc(F)c(-c2c(NC(=O)c3ccc(OC(F)F)cc3)c(=O)n(-c3nc(NCC(C)(C)O)ccc3C(F)(F)F)n2C)c(F)c1 [Example 271, N-[5-(2,6-difluoro-4-methoxyphenyl)-2-{6-[(2-hydroxy-2-methylpropyl)amino]-3-(trifluoromethyl)pyridin-2-yl}-1-methyl-3-oxo-2,3-dihydro-1H-pyrazol-4-yl]-4-(difluoromethoxy)benzamide]
